Test results from patent US5464616A, “6β-substituted penicillanic acids as beta-lactamase inhibitors” (Synphar Laboratories, Ind., priority 1994, dated 1995).

Assays:
E. aerogenes S95 = experiment: MIC of cephalothin alone and in combination with inhibitor, E. aerogenes S95 (microbroth dilution); type: cell-based; settings: Klebsiella aerogenes, cephalothin alone, MHB, 5 × 10^5 cfu/ml, 16 h/35° C.
Method: (§1) MIC values of cephalothin in combination with
(§2) β-lactamase inhibitors Ia and Ic.
(§3) Microbroth Dilution Method, MHB; Inoculum, 5 × 10^5 cfu/ml;
(§4) Incubation, 16 h/35° C.;
(§5) *Concentration of inhibitor = 5 mg/ml (fixed).

C. freundii S40 = experiment: MIC of cephalothin alone and in combination with inhibitor, C. freundii S40 (microbroth dilution); type: cell-based; settings: Citrobacter freundii, cephalothin alone, MHB, 5 × 10^5 cfu/ml, 16 h/35° C.
Method: as §1, §2, §3, §4, §5

[1] = molecular target: T1, cephalosporinase, which was isolated from Enterobacter cloacae (Enterobacter cloacae, UniProt P05364); experiment: inhibition of representative cephalosporinase isolated from Enterobacter cloacae; type: biochemical; settings: read-out: IC50 against representative cephalosporinase
T1 construct: which was isolated from Enterobacter cloacae; endogenous in cells; host or cells: Enterobacter cloacae
Source text: […]. Because of such differences in IC50 value against different types of β-lactamases, these inhibitors are regarded as selective cephalosporinase-inhibitors at the low concentration.

Gram-negative bacteria = experiment: whole cell bacteria: antibacterial activity of the inhibitors alone and synergy with cephalothin; type: cell-based; settings: for synergistic activity against Gram-negative bacteria: in combination with cephalothin, whole cell bacteria; for antibacterial activity of the inhibitors themselves: inhibitor alone
[2] = test system: class C cephalosporinases; settings: chromosomally encoded inducible cephalosporinases; cited from earlier work
bacteria = settings: in combination with amoxycillin, ampicillin, piperacillin, respectively; cited from earlier work

T1 sequence (P05364 21-381): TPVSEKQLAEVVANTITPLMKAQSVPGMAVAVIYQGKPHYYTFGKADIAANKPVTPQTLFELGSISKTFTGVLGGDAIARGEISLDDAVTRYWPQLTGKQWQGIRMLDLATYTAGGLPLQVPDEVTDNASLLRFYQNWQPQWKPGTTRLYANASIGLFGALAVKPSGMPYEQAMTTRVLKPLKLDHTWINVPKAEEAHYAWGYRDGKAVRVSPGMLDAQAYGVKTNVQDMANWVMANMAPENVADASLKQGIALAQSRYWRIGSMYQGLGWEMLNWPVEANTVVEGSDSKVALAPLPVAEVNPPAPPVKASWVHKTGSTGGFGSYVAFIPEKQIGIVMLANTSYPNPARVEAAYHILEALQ

IC50 [1]	Structure (SMILES)	protection of antibiotics from class C cephalosporinases [2]	enhancement of effectiveness of conventional antibiotics (bacteria)	also measured
	CC(=O)OCC1=C(C(=O)O)N2C(=O)[C@@H](NC(=O)Cc3cccs3)[C@H]2SC1 [Cephalothin]			MIC (E. aerogenes S95): > 256 µg/mL; MIC (C. freundii S40): 256 µg/mL
7 nM	C=CCOC(=O)C(C(=O)N[C@@H]1C(=O)N2[C@@H]1SC(C)(C)[C@@H]2C(=O)O)=C1SC=CS1 [IIa, 6β-[(Allyloxycarbonyl)(1,3-dithiolen-2-ylidene)acetamido]-2,2-dimethylpenam-3-carboxylic acid]			
0.49 nM	CCOC(=O)C(C(=O)N[C@@H]1C(=O)N2[C@@H]1SC(C)(C)[C@@H]2C(=O)O)=C1SCCS1 [Ib, 6β-[(1,3-Dithiolan-2-ylidene)(ethoxycarbonyl)acetamido]-2,2-dimethylpenam-3-carboxylic acid]			
150 nM	CCOC(=O)C(C(=O)N[C@@H]1C(=O)N2[C@@H](C(=O)O)C(C)(C)S(=O)(=O)[C@H]12)=C1SCCS1 [Id, 6β-[(1,3-Dithiolan-2-ylidene)(ethoxycarbonyl)acetamido]-2,2-dimethylpenam-3-carboxylic acid 1,1-dioxide]			
	O=C(O)[C@H]1/C(=C/CO)O[C@@H]2CC(=O)N21 [clavulanic acid]	failed to protect the antibiotics	proved to enhance the effectiveness of conventional antibiotics against many bacteria	
	CC1(C)[C@H](C(=O)O)N2C(=O)C[C@H]2S1(=O)=O [sulbactam]	failed to protect the antibiotics	proved to enhance the effectiveness of conventional antibiotics against many bacteria	
	C[C@]1(Cn2ccnn2)[C@H](C(=O)O)N2C(=O)C[C@H]2S1(=O)=O [tazobactam]	failed to protect the antibiotics	proved to enhance the effectiveness of conventional antibiotics against many bacteria	

Structure (SMILES)	IC50 [1]	protection of antibiotics from class C cephalosporinases [2]	enhancement of effectiveness of conventional antibiotics (bacteria)	also measured
COC(=O)C(C(=O)N[C@@H]1C(=O)N2[C@@H]1SC(C)(C)[C@@H]2C(=O)O)=C1SCCS1 [Ia, 6β-[(1,3-Dithiolan-2-ylidene)(methoxycarbonyl)acetamido]-2,2-dimethylpenam-3-carboxylic acid]	0.61 nM			synergistic activity against Gram-negative bacteria (Gram-negative bacteria): synergistic activity; antibacterial activity of the inhibitors themselves (Gram-negative bacteria): no antibacterial activity at the concentration up to 128 mg/ml
CC1(C)S[C@@H]2[C@H](NC(=O)C(C(=O)O)=C3SCCS3)C(=O)N2[C@H]1C(=O)O [Ic, Disodium 6β-[carboxylato(1,3-dithiolan-2-ylidene)acetamido]-2,2-dimethylpenam-3-carboxylate]	9.1 nM			synergistic activity against Gram-negative bacteria (Gram-negative bacteria): synergistic activity; antibacterial activity of the inhibitors themselves (Gram-negative bacteria): no antibacterial activity at the concentration up to 128 mg/ml
